# Measured values reported in ChEMBL document CHEMBL5046216, “Disrupting Tryptophan in the Central Hydrophobic Region Selectively Mitigates Immunomodulatory Activities of the Innate Defence Regulator Peptide IDR-1002” (J Med Chem, 2021).
# Activity calls are given as the source filed them. The calls are words filed in the database; no cut-off is given here.
# Columns and labels:
# HBEC3-KT [1] = test: Antiinflammatory activity in human HBEC3-KT cells assessed as fold increase in IL-1RA expression at 10 uM measured after 24 hrs by ELISA relative to control; assay type: functional
# HBEC3-KT [2] = test: Immunomodulatory activity in human HBEC3-KT cells assessed as suppression of INFgamma-induced IL-33 at 10 uM preincubated for 30 mins followed by INFgamma stimulation and measured after 24 hrs by Western blot analysis; assay type: functional
# Mus musculus [3] = test: Effect on IL-30 level in dust-mite-induced BALB/c mouse model of airway inflammation assessed as greater than 2 fold induction at 6 mg/kg, sc administered for 2 weeks and measured 24 hrs post-HDM challenge by MSD multiplex assay; assay type: functional, organism-based
# HBEC3-KT [4] = test: Cytotoxicity against human HBEC3-KT incubated for 24 hrs by LDH assay; assay type: functional
# Mus musculus [5] = test: Effect on TNF 1 level in dust-mite-induced BALB/c mouse model of airway inflammation assessed as greater than 2 fold induction at 6 mg/kg, sc administered for 2 weeks and measured 24 hrs post-HDM challenge by MSD multiplex assay; assay type: functional, organism-based
# Mus musculus [6] = test: Antiinflammatory activity in house dust-mite-induced BALB/c mouse model of methacholine-induced airway hyperreactivity assessed as reduction in methacholine-induced tissue damping at 6 mg/kg , ip administered for 2 weeks after methacholine-stimulation at 50 mg/ml measured 24 hrs post-HDM challenge; assay type: functional; parameters: scale not given: the % may be the effect or the level left
# Mus musculus [7] = test: Effect on IL-23 level in dust-mite-induced BALB/c mouse model of airway inflammation assessed as greater than 2 fold induction at 6 mg/kg, sc administered for 2 weeks and measured 24 hrs post-HDM challenge by MSD multiplex assay; assay type: functional, organism-based
# Mus musculus [8] = test: Effect on IL-1beta level in dust-mite-induced BALB/c mouse model of airway inflammation assessed as greater than 2 fold induction at 6 mg/kg, sc administered for 2 weeks and measured 24 hrs post-HDM challenge by MSD multiplex assay; assay type: functional, organism-based
# Mus musculus [9] = test: Effect on IL-2 level in dust-mite-induced BALB/c mouse model of airway inflammation assessed as greater than 2 fold induction at 6 mg/kg, sc administered for 2 weeks and measured 24 hrs post-HDM challenge by MSD multiplex assay; assay type: functional, organism-based
# Mus musculus [10] = test: Antiinflammatory activity in house dust-mite-induced BALB/c mouse model of methacholine-induced airway hyperreactivity assessed as reduction in methacholine-induced newtonian resistance at 6 mg/kg , ip administered for 2 weeks after methacholine-stimulation at 50 mg/ml measured 24 hrs post-HDM challenge; assay type: functional; parameters: scale not given: the % may be the effect or the level left
# HBEC3-KT [11] = test: Antiinflammatory activity in human HBEC3-KT cells assessed as fold increase in STC1 expression at 10 uM measured after 24 hrs by ELISA relative to control; assay type: functional
# Mus musculus [12] = test: Effect on IL-10 level in dust-mite-induced BALB/c mouse model of airway inflammation assessed as greater than 2 fold induction at 6 mg/kg, sc administered for 2 weeks and measured 24 hrs post-HDM challenge by MSD multiplex assay; assay type: functional, organism-based
# Mus musculus [13] = test: Effect on IP10 level in dust-mite-induced BALB/c mouse model of airway inflammation assessed as greater than 2 fold induction at 6 mg/kg, sc administered for 2 weeks and measured 24 hrs post-HDM challenge by MSD multiplex assay; assay type: functional, organism-based
# Mus musculus [14] = test: Effect on IL-17AF level in dust-mite-induced BALB/c mouse model of airway inflammation assessed as greater than 2 fold induction at 6 mg/kg, sc administered for 2 weeks and measured 24 hrs post-HDM challenge by MSD multiplex assay; assay type: functional, organism-based
# [15] = Stability of the compound in human HBEC3-KT cells assessed as compound degradation ay 10 uM measured after 16 hrs by FRET assay relative to control; assay type: functional
# Mus musculus [16] = test: Antiinflammatory activity in house dust-mite-induced BALB/c mouse model of methacholine-induced airway hyperreactivity assessed as reduction in methacholine-induced tissue elastance at 6 mg/kg , ip administered for 2 weeks after methacholine-stimulation at 50 mg/ml measured 24 hrs post-HDM challenge; assay type: functional; parameters: scale not given: the % may be the effect or the level left
# Mus musculus [17] = test: Effect on IFNgamma level in dust-mite-induced BALB/c mouse model of airway inflammation assessed as greater than 2 fold induction at 6 mg/kg, sc administered for 2 weeks and measured 24 hrs post-HDM challenge by MSD multiplex assay; assay type: functional, organism-based
# Mus musculus [18] = test: Effect on IL-17F level in dust-mite-induced BALB/c mouse model of airway inflammation assessed as greater than 2 fold induction at 6 mg/kg, sc administered for 2 weeks and measured 24 hrs post-HDM challenge by MSD multiplex assay; assay type: functional, organism-based
# Mus musculus [19] = test: Antiinflammatory activity in house dust-mite-induced BALB/c mouse model of airway inflammation assessed as suppression of total leukocyte count in BALF at 6 mg/kg, sc administered for 2 weeks and measured 24 hrs post-HDM challenge by Wright-Giemsa staining based microscopy; assay type: functional
# Mus musculus [20] = test: Effect on MIP3alpha level in dust-mite-induced BALB/c mouse model of airway inflammation assessed as greater than 2 fold induction at 6 mg/kg, sc administered for 2 weeks and measured 24 hrs post-HDM challenge by MSD multiplex assay; assay type: functional, organism-based
# Mus musculus [21] = test: Effect on IL-22 level in dust-mite-induced BALB/c mouse model of airway inflammation assessed as greater than 2 fold induction at 6 mg/kg, sc administered for 2 weeks and measured 24 hrs post-HDM challenge by MSD multiplex assay; assay type: functional, organism-based
# Mus musculus [22] = test: Effect on IL-17C level in dust-mite-induced BALB/c mouse model of airway inflammation assessed as greater than 2 fold induction at 6 mg/kg, sc administered for 2 weeks and measured 24 hrs post-HDM challenge by MSD multiplex assay; assay type: functional, organism-based
# Mus musculus [23] = test: Effect on IL-5 level in dust-mite-induced BALB/c mouse model of airway inflammation assessed as greater than 2 fold induction at 6 mg/kg, sc administered for 2 weeks and measured 24 hrs post-HDM challenge by MSD multiplex assay; assay type: functional, organism-based
# Mus musculus [24] = test: Antiinflammatory activity in house dust-mite-induced BALB/c mouse model of methacholine-induced airway hyperreactivity assessed as reduction in methacholine-induced newtonian resistance at 6 mg/kg , ip administered for 2 weeks after methacholine-stimulation at 12 mg/ml measured 24 hrs post-HDM challenge; assay type: functional, organism-based
# Mus musculus [25] = test: Effect on IL-12p70 level in dust-mite-induced BALB/c mouse model of airway inflammation assessed as greater than 2 fold induction at 6 mg/kg, sc administered for 2 weeks and measured 24 hrs post-HDM challenge by MSD multiplex assay; assay type: functional, organism-based
# Mus musculus [26] = test: Antiinflammatory activity in house dust-mite-induced BALB/c mouse model of airway inflammation assessed as suppression of total eosinophil count in BALF at 6 mg/kg, sc administered for 2 weeks and measured 24 hrs post-HDM challenge by Wright-Giemsa staining based microscopy; assay type: functional
# Mus musculus [27] = test: Effect on MIP1alpha level in dust-mite-induced BALB/c mouse model of airway inflammation assessed as greater than 2 fold induction at 6 mg/kg, sc administered for 2 weeks and measured 24 hrs post-HDM challenge by MSD multiplex assay; assay type: functional, organism-based
# Mus musculus [28] = test: Effect on KC 10 level in dust-mite-induced BALB/c mouse model of airway inflammation assessed as greater than 2 fold induction at 6 mg/kg, sc administered for 2 weeks and measured 24 hrs post-HDM challenge by MSD multiplex assay; assay type: functional, organism-based
Substance,Activity (Mus musculus [3]),Activity (HBEC3-KT [4]),Activity (Mus musculus [5]),Activity (Mus musculus [6]),Activity (Mus musculus [7]),Activity (Mus musculus [8]),Activity (Mus musculus [9]),Activity (Mus musculus [10]),fold change (FC) (HBEC3-KT [11]),Activity (Mus musculus [12]),Activity (Mus musculus [13]),Activity (Mus musculus [14]),Activity [15],Activity (Mus musculus [16]),Activity (Mus musculus [17]),Activity (Mus musculus [18]),Activity (Mus musculus [19]),Activity (Mus musculus [20]),Activity (Mus musculus [21]),Activity (Mus musculus [22]),further results
H-VQRWLIVRRIRK-OH,inactive,inactive,inactive,64%,inactive,inactive,inactive,39%,inactive,inactive,inactive,inactive,<5%,63%,inactive,inactive,inactive,inactive,inactive,inactive,Activity (HBEC3-KT [1]): inactive; Activity (HBEC3-KT [2]): inactive; Activity (Mus musculus [23]): inactive; Activity (Mus musculus [24]): Active; Activity (Mus musculus [25]): inactive; Activity (Mus musculus [26]): inactive; Activity (Mus musculus [27]): inactive; Activity (Mus musculus [28]): inactive
H-VQRWLIVWRIRK-OH,inactive,<=15%,inactive,Active,inactive,inactive,inactive,Active,4,inactive,inactive,inactive,<5%,Active,inactive,inactive,66%,inactive,inactive,inactive,fold change (FC) (HBEC3-KT [1]): 2.6; Activity (HBEC3-KT [2]; 0.5 h): 85%; Activity (Mus musculus [23]): inactive; Activity (Mus musculus [24]): Active; Activity (Mus musculus [25]): inactive; Activity (Mus musculus [26]): 63%; Activity (Mus musculus [27]): inactive; Activity (Mus musculus [28]): inactive
